Assay results taken from patent US9770446B2, “Piperidine urea derivatives” (MERCK PATENT GMBH, priority 2013, dated 2017).

Experiments:
[1] = target: T1, GST-tagged Tankyrase-1 (1023-1327 aa) (Homo sapiens, UniProt O95271); experiment: Tankyrase 1 autoparsylation HTRF enzyme assay; assay type: biochemical; conditions: read-out: IC50 TNKS1 enzyme assay
T1 construct: GST-tagged Tankyrase-1 (1023-1327 aa)
Procedure: (§1) Biochemical activity testing of Tankyrase 1 and 2: Autoparsylation assay
(§2) The autoparsylation assay is run in two steps: the enzymatic reaction in which GST-tagged Tankyrase-1, resp Tankyrase-2 transferred biotinylated ADP-ribose to itself from biotinylated NAD as co-substrate and the detection reaction where a time resolved FRET between cryptate labelled anti-GST bound to the GST tag of the enzyme and Xlent® labelled-streptavidin bound the biotin-parsylation residue is analysed. The autoparsylation activity was detectable directly via the increase in HTRF signal.
(§3) The autoparsylation assay is performed as 384-well HTRF® (Cisbio, Codolet, France) assay format in Greiner low volume nb 384-well microtiter plates and is used for high throughput screen. 250 nM GST-tagged Tankyrase-1 (1023-1327 aa), respectively about 250 nM GST-tagged Tankyrase-2 (873-1166 aa) and 5 μM bio-NAD (Biolog, Life science Inst., Bremen, Germany) as co-substrate are incubated in a total volume of 5 μl (50 mM HEPES, 4 mM Mg-chloride, 0.05% Pluronic F-68, 1.4 mM DTT, 0.5% DMSO, pH 7.7) in the absence or presence of the test compound (10 dilution concentrations) for 90 min at 30° C. The reaction is stopped by the addition of 1 μl 50 mM EDTA solution. 2 μl of the detection solution (1.6 μM SA-Xlent® (Cisbio, Codolet, France), 7.4 nM Anti-GST-K® (Eu-labelled anti-GST, Cisbio, Codolet, France) in 50 mM HEPES, 800 mM KF, 0.1% BSA, 20 mM EDTA, 0.1% CHAPS, pH 7.0) are added. After 1 h incubation at room temperature the HTRF is measured with an Envision multimode reader (Perkin Elmer LAS Germany GmbH) at excitation wavelength 340 nm (laser mode) and emission wavelengths 615 nm and 665 nm. The ratio of the emission signals is determined. The full value used is the inhibitor-free reaction. The pharmacological zero value used is XAV-939 (Tocris) in a final concentration of 5 μM. The inhibitory values (IC50) are determined using either the program Symyx Assay Explorer® or Condosseo® from GeneData.

[2] = target: T2, GST-tagged Tnks-1 (1023-1327 aa) (Homo sapiens, UniProt O95271); experiment: TNKS1 activity ELISA (autoparsylation assay); assay type: biochemical
T2 construct: GST-tagged Tnks-1 (1023-1327 aa, prepared in-house); made in house
T2 sequence (O95271 1023-1327): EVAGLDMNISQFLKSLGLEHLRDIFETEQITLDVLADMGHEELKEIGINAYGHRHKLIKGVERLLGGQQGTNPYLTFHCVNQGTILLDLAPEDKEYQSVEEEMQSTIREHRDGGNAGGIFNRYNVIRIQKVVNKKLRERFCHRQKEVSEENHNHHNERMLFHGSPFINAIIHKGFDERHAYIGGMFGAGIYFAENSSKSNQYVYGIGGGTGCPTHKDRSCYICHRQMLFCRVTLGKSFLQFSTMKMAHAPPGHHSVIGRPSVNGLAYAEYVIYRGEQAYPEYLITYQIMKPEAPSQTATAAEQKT
Procedure: (§4) Description of the TNKS1 and TNKS2 ELISA Assay
(§5) Biochemical Activity Testing of TNKS 1 and 2: Activity ELISA (Autoparsylation Assay)
(§6) For analysis of autoparsylation activity of TNKS 1 and 2 an activity ELISA iss performed: In the first step GST tagged TNKS is captured on a Glutathione coated plate. Then the activity assay with biotinylated NAD is performed in the absence/presence of the compounds. During the enzymatic reaction GST tagged TNKS transfers biotinylated ADP-ribose to itself from biotinylated NAD as co-substrate. For the detection streptavidin-HRP conjugate is added that binds to the biotinylated TNKS and is thereby captured to the plates. The amount of biotinylated resp. autoparsylated TNKS is detected with a luminescence substrate for HRP. The level of the luminescence signal correlates directly with the amount of autoparsylated TNKS and therefore with activity of TNKS.
(§7) The activity ELISA is performed in 384 well Glutathione coated microtiter plates (Express capture Glutathione coated plate, Biocat, Heidelberg, Germany). The plates are pre-equilibrated with PBS. Then the plates are incubated with 50 μl 20 ng/well GST-tagged Tnks-1 (1023-1327 aa, prepared in-house), respectively GST-tagged Tnks-2 (873-1166 aa, prepared in-house) in assay buffer (50 mM HEPES, 4 mM Mg-chloride, 0.05% Pluronic F-68, 2 mM DTT, pH 7.7) overnight at 4° C. The plates are washed 3 times with PBS-Tween-20. The wells are blocked by incubation at room temperature for 20 minutes with 50 μl blocking buffer (PBS, 0.05% Tween-20, 0.5% BSA). Afterwards the plates are washed 3 times with PBS-Tween-20. The enzymatic reaction is performed in 50 μl reaction solution (50 mM HEPES, 4 mM Mg-chloride, 0.05% Pluronic F-68, 1.4 mM DTT, 0.5% DMSO, pH 7.7) with 10 μM bio-NAD (Biolog, Life science Inst., Bremen, Germany) as co-substrate in the absence or presence of the test compound (10 dilution concentrations) for 1 hour at 30° C. The reaction is stopped by 3 times washing with PBS-Tween20. For the detection 50 μl of 20 ng/μl Streptavidin, HRP conjugate (MoBiTec, Göttingen, Germany) in PBS/0.05% Tween-20/0.01% BSA are added and the plates are incubated for 30 minutes at room temperature. After three times washing with PBS-Tween-20 50 μl of SuperSignal ELISA Femto Maximum sensitivity substrate solution (ThermoFisherScientific (Pierce), Bonn, Germany) are added. Following a 1 minute incubation at room temperature luminescence signals are measured with an Envision multimode reader (Perkin Elmer LAS Germany GmbH) at 700 nm. The full value used is the inhibitor-free reaction. The pharmacological zero value used is XAV-939 (Tocris) in a final concentration of 5 μM. The inhibitory values (IC50) are determined using either the program Symyx Assay Explorer® or Condosseo® from GeneData.

[3] = target: T3, GST-tagged Tankyrase-2 (873-1166 aa) (Homo sapiens, UniProt Q9H2K2); experiment: Tankyrase 2 autoparsylation HTRF enzyme assay; assay type: biochemical; conditions: read-out: IC50 TNKS2 enzyme assay
T3 construct: GST-tagged Tankyrase-2 (873-1166 aa)
T3 sequence (Q9H2K2 873-1166): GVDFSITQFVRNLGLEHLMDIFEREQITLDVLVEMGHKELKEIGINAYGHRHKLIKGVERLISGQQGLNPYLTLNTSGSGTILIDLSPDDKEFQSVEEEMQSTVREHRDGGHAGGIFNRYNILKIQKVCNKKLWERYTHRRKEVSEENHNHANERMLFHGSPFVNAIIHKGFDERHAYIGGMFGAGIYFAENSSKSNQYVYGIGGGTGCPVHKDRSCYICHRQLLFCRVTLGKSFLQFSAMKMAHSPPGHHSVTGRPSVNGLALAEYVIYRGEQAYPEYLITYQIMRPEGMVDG
Procedure: as §1, §2, §3

[4] = tested on: Tankyrase; experiment: Cellular inhibition of Tankyrase: Axin2 level in DLD1 cells (Luminex); assay type: cell-based; conditions: 24 hours, Axin2 increase, read-out: EC50 [M] TNKS cellular assay
Procedure: Measurement of Cellular Inhibition of Tankyrase
Since Tankyrases have been described to modulate cellular level of Axin2 (Huang et al., 2009; Nature) the increase of Axin2 level is used as read-out for determination of cellular inhibition of Tankyrases in a Luminex based assay.
Cells of the colon carcinoma cell line DLD1 are plated in 96 well plates with 1.5×10^4 cells per well. Next day, cells are treated with a serial dilution of test compound in seven steps as triplicates with a final DMSO concentration of 0.3%. After 24 hours, cells are lysed in lysis buffer (20 mM Tris/HCl pH 8.0, 150 mM NaCl, 1% NP40, 10% Glycerol) and lysates are cleared by centrifugation through a 96 well filter plate (0.65 μm). Axin2 protein is isolated from cell lysates by incubation with a monoclonal anti-Axin2 antibody (R&D Systems #MAB6078) that is bound to fluorescent carboxybeads. Then, bound Axin2 is specifically detected with a polyclonal anti-Axin2 antibody (Cell Signaling #2151) and an appropriate PE-fluorescent secondary antibody. The amount of isolated Axin2 protein is determined in a Luminex^200 machine (Luminex Corporation) according to the manufacturer's instruction by counting 100 events per well. Inhibition of Tankyrase by test compounds results in higher levels of Axin2 which directly correlates with an increase of detectable fluorescence. As controls cells are treated with solvent alone (neutral control) and with a Tankyrase reference inhibitor IWR-2 (3E-06 M) which refers as control for maximum increase of Axin2. For analysis, the obtained data are normalized against the untreated solvent control and fitted for determination of the EC50 values using the Assay Explorer software (Accelrys).

[5] = target: T4, GST-tagged Tnks-2 (873-1166 aa) (Homo sapiens, UniProt Q9H2K2); experiment: TNKS2 activity ELISA (autoparsylation assay); assay type: biochemical
T4 construct: GST-tagged Tnks-2 (873-1166 aa, prepared in-house); made in house
T4 sequence (Q9H2K2 873-1166): as above
Procedure: as §4, §5, §6, §7

T1 sequence (O95271 1023-1327): as the sequence (O95271 1023-1327) above

| SMILES | IC50 [1] [nM] | IC50 [2] [nM] | IC50 [3] [nM] | EC50 [4] [M] | IC50 [5] [nM] |
| --- | --- | --- | --- | --- | --- |
| O=C(c1ccccc1)C1CCN(C(=O)N2CCCc3ccccc32)CC1 [Compound A22, (4-benzoyl-piperidin-1-yl)-(3,4-dihydro-2H-quinolin-1-yl)-methanone] | 3000 to 50000 | 300 to 3000 | 3000 to 50000 | 3e-06 to 5e-05 | 300 to 3000 |
| COc1ccc(N(C)C(=O)N2CCC(C(=O)c3ccc(OC)c(C)c3)CC2)cc1 [Compound A23, 4-(4-methoxy-3-methyl-benzoyl)-piperidine-1-carboxylic acid (4-methoxy-phenyl)-methyl-amide] | < 300 | < 300 | 300 to 3000 | < 3e-07 | < 300 |
| COc1ccc(N(C)C(=O)N2CCC(C(=O)c3ccc(OC)c(F)c3)CC2)cn1 [Compound A42, 4-(3-fluoro-4-methoxy-benzoyl)-N-(6-methoxy-3-pyridyl)-N-methyl-piperidine-1-carboxamide] | < 300 | < 300 | 300 to 3000 | < 3e-07 | < 300 |
| COc1ccc(N(C)C(=O)N2CCC(C(=O)c3cccc(C)c3)CC2)cn1 [Compound A45, N-(6-methoxy-3-pyridyl)-N-methyl-4-(3-methylbenzoyl)piperidine-1-carboxamide] | 300 to 3000 | < 300 | 300 to 3000 | < 3e-07 | < 300 |
| COc1ccc(N(C)C(=O)N2CCC(C(=O)c3ccc(C)cc3)CC2)cn1 [Compound A46, N-(6-methoxy-3-pyridyl)-N-methyl-4-(4-methylbenzoyl)piperidine-1-carboxamide] | 300 to 3000 | < 300 | 300 to 3000 | 3e-07 to 3e-06 | < 300 |
| COc1cccc(C(=O)C2CCN(C(=O)N(C)c3ccc(OC)nc3)CC2)c1 [Compound A47, 4-(3-methoxybenzoyl)-N-(6-methoxy-3-pyridyl)-N-methyl-piperidine-1-carboxamide] | 300 to 3000 | < 300 | 300 to 3000 | 3e-07 to 3e-06 | < 300 |
| COc1ccc(C(=O)C2CCN(C(=O)N(C)c3ccc(OC)nc3)CC2)cc1 [Compound A49, 4-(4-methoxybenzoyl)-N-(6-methoxy-3-pyridyl)-N-methyl-piperidine-1-carboxamide] | < 300 | < 300 | 300 to 3000 | < 3e-07 | < 300 |
| COc1ccc(N(C)C(=O)N2CCC(C(=O)c3cccc(F)c3)CC2)cn1 [Compound A50, 4-(3-fluorobenzoyl)-N-(6-methoxy-3-pyridyl)-N-methyl-piperidine-1-carboxamide] | 300 to 3000 | < 300 | 300 to 3000 | 3e-07 to 3e-06 | < 300 |
| COc1ccc(N(C)C(=O)N2CCC(C(=O)c3ccc(F)cc3)CC2)cn1 [Compound A51, 4-(4-fluorobenzoyl)-N-(6-methoxy-3-pyridyl)-N-methyl-piperidine-1-carboxamide] | 300 to 3000 | < 300 | 300 to 3000 | 3e-07 to 3e-06 | < 300 |
